Measured values taken from paper PMC10733463, “Berberine-microbiota interplay: orchestrating gut health through modulation of the gut microbiota and metabolic transformation into bioactive metabolites” (Frontiers in Pharmacology, 2023).

How the values were obtained:
colonic microbiota = assay: 16S rRNA gene sequencing, microbiota composition in the colon; format: in vivo, Ross 308 broiler chickens
caecal microbiota = assay: SCFA quantification (GC-FID) in caecal contents of chickens; format: in vivo, Ross 308 broiler chickens; settings: high dose (1 g berberine/kg feed), 21 days; p = 0.045
Method: 250 mg caecal content derived from the in vivo trial were weighed and diluted 1:20 for SCFA analysis. Acetate, propionate and butyrate were quantified using the GC-FID method described by ([De […] et al., 2010]). This method involves the extraction of SCFA from samples with diethyl ether after the addition of 2-methyl hexanoic acid as an internal standard.

[1] = 0.1 g berberine/kg feed vs normal diet, 21 days, LinDA-normalized abundance
[2] = 0.1 g berberine/kg feed, 21 days
[3] = 0.5 g berberine/kg feed vs normal diet, 21 days, LinDA-normalized abundance
[4] = 0.5 g berberine/kg feed, 21 days
[5] = 1 g berberine/kg feed vs normal diet, 21 days, LinDA-normalized abundance

COc1ccc2cc3[n+](cc2c1OC)CCc1cc2c(cc1-3)OCO2 [Berberine, Berberine chloride]
L2 FC Family_ Peptostreptococcaceae, 0.1 vs 0 (colonic microbiota; [1]): -1.21 | L2 FC GCA-900066575, 0.1 vs 0 (colonic microbiota; [1]): 3.13 | L2 FC Lachnospiraceae UCG-010, 0.1 vs 0 (colonic microbiota; [1]): 2.34 | L2 FC Romboutsia, 0.1 vs 0 (colonic microbiota; [1]): -0.31 | L2 FC Ruminococcaceae UCG-014, 0.1 vs 0 (colonic microbiota; [1]): 5.39 | L2 FC uncultured genus of Peptostreptococcaceae, 0.1 vs 0 (colonic microbiota; [1]): -1.31 | Mean relative abundance (%) Family_ Peptostreptococcaceae (colonic microbiota; [2]): 0.11% | Mean relative abundance (%) GCA-900066575 (colonic microbiota; [2]): 0.59% | Mean relative abundance (%) Lachnospiraceae UCG-010 (colonic microbiota; [2]): 0.06% | Mean relative abundance (%) Romboutsia (colonic microbiota; [2]): 0.14% | Mean relative abundance (%) Ruminococcaceae UCG-014 (colonic microbiota; [2]): 3.36% | Mean relative abundance (%) uncultured genus of Peptostreptococcaceae (colonic microbiota; [2]): 13.82% | Mean relative abundance of Peptostreptococcaceae (colonic microbiota; [2]): 14.07% | L2FC of LinDA-normalized abundance of Peptostreptococcaceae (colonic microbiota; 0.1 vs 0 g berberine/kg feed): -0.79 | L2 FC Family_ Peptostreptococcaceae, 0.5 vs 0 (colonic microbiota; [3]): -2.31 | L2 FC GCA-900066575, 0.5 vs 0 (colonic microbiota; [3]): 1.10 | L2 FC Lachnospiraceae UCG-010, 0.5 vs 0 (colonic microbiota; [3]): 0.64 | L2 FC Romboutsia, 0.5 vs 0 (colonic microbiota; [3]): -1.42 | L2 FC Ruminococcaceae UCG-014, 0.5 vs 0 (colonic microbiota; [3]): 2.59 | L2 FC uncultured genus of Peptostreptococcaceae, 0.5 vs 0 (colonic microbiota; [3]): -1.92 | Mean relative abundance (%) Family_ Peptostreptococcaceae (colonic microbiota; [4]): 0.13% | Mean relative abundance (%) GCA-900066575 (colonic microbiota; [4]): 0.53% | Mean relative abundance (%) Lachnospiraceae UCG-010 (colonic microbiota; [4]): 0.03% | Mean relative abundance (%) Romboutsia (colonic microbiota; [4]): 0.11% | Mean relative abundance (%) Ruminococcaceae UCG-014 (colonic microbiota; [4]): 1.19% | Mean relative abundance (%) uncultured genus of Peptostreptococcaceae (colonic microbiota; [4]): 15.49% | Mean relative abundance of Peptostreptococcaceae (colonic microbiota; [4]): 15.73% | L2FC of LinDA-normalized abundance of Peptostreptococcaceae (colonic microbiota; 0.5 vs 0 g berberine/kg feed): -0.94 | L2 FC Family_ Peptostreptococcaceae, 1 vs 0 (colonic microbiota; [5]): -6.62 | L2 FC GCA-900066575, 1 vs 0 (colonic microbiota; [5]): 2.34 | L2 FC Lachnospiraceae UCG-010, 1 vs 0 (colonic microbiota; [5]): 0.99 | L2 FC Romboutsia, 1 vs 0 (colonic microbiota; [5]): -6.45 | L2 FC Ruminococcaceae UCG-014, 1 vs 0 (colonic microbiota; [5]): 3.32 | L2 FC uncultured genus of Peptostreptococcaceae, 1 vs 0 (colonic microbiota; [5]): -9.04 | Mean relative abundance (%) Family_ Peptostreptococcaceae (colonic microbiota; 1 g berberine/kg feed, 21 days): 0.01% | Mean relative abundance (%) GCA-900066575 (colonic microbiota; 1 g berberine/kg feed, 21 days): 0.65% | Mean relative abundance (%) Lachnospiraceae UCG-010 (colonic microbiota; 1 g berberine/kg feed, 21 days): 0.06% | Mean relative abundance (%) Romboutsia (colonic microbiota; 1 g berberine/kg feed, 21 days): 0.00% | Mean relative abundance (%) Ruminococcaceae UCG-014 (colonic microbiota; 1 g berberine/kg feed, 21 days): 1.02% | Mean relative abundance (%) uncultured genus of Peptostreptococcaceae (colonic microbiota; 1 g berberine/kg feed, 21 days): 0.50% | Mean relative abundance of Peptostreptococcaceae (colonic microbiota; 1 g berberine/kg feed, 21 days): 0.51% | L2FC of LinDA-normalized abundance of Peptostreptococcaceae (colonic microbiota; 1 vs 0 g berberine/kg feed): -8.67 | Observed number of OTUs (colonic microbiota; lowest concentration (0.1 g/kg feed), p = 0.026): significantly increased | Propionate in the caecum (GC-FID) (caecal microbiota): significantly increased
